# Measured values from US20010006969A1, “PYRIMIDINE NUCLEUS-CONTAINING COMPOUND AND A MEDICAMENT CONTAINING THE SAME FOR A BLOOD OXYGEN PARTIAL PRESSURE AMELIORATION, AND A METHOD FOR PREPARING THE SAME” (priority 1997, published 2001).
# Key:
# [1] = tested on: hypoxemic model rats; assay: Determination of oxygen partial pressure increasing action (arterial blood PaO2 gain in hypoxemic model rats); assay type: in vivo, Sprague-Dawley male rats; settings: urethane-anesthetized rats, i.v. continuously 0.1 mg/kg/min, PaO2 measured 10 minutes after completion of administration, gain before vs after
# Protocol: Determination of oxygen partial pressure increasing action
# Actions of the quinazoline derivatives of the present invention to increase oxygen partial pressure in the arterial blood were determined according to the following method:
# Sprague-Dawley male rats having body weights of about 250 g were anesthetized (i.p.) with urethane and cannulated to the respiratory tracts, femoral arteries and femoral veins. An olive oil-charcoal powder suspension (10 mg/ml) was introduced in an amount of 0.8 ml/kg through the respiratory tract cannulae into the lungs to cause the rats to hypoxic state (PaO2≦75 mmHg). The quinazoline derivatives listed in Table 1 were intravenously administered to these hypoxemic model rats continuously at a rate of 0.1 mg/kg/min, and arterial blood oxygen partial pressure value (PaO2) of each rat was measured at the time point of 10 minutes after completion of administration using a blood gas analyzer (Ciba Corning 800 series). Gains (APaO2) were determined based on results of PaO2 measurement made before and after administration of the test compounds.
# Actions of the thienopyrimidine derivatives of the present invention to increase oxygen partial pressure in the arterial blood were determined according to the following method:
# Sprague-Dawley male rats having body weights of about 250 g were anesthetized (i.p.) with urethane and cannulated to the respiratory tracts, femoral arteries and femoral veins. An olive oil-charcoal powder suspension (10 mg/ml) was introduced in an amount of 0.8 ml/kg through the respiratory tract cannulae into the lungs to cause the rats to be under hypoxic state (PaO2 Δ 75 mmHg). The thienopyrimidine derivatives listed in Table 2 were intravenously administered to these hypoxemic model rats continuously at a rate of 0.1 mg/kg/min, and arterial blood oxygen partial pressure value (PaO2) of each rat was measured at the time point of 10 minutes after completion of administration using a blood gas analyzer (Ciba Corning 800 series). Gains (ΔPaO2) were determined based on results of PaO2 measurement made before and after administration of the test compounds.
# [2] = quinazoline derivatives, hypoxic state (PaO2≦75 mmHg) by olive oil-charcoal powder suspension
# [3] = thienopyrimidine derivatives, hypoxic state (PaO2 Δ 75 mmHg) by olive oil-charcoal powder suspension
SMILES,melting point,"ΔPaO2 [1, 2]","ΔPaO2 [1, 3]"
"C=CCNc1nc(NCC)c2cc([N+](=O)[O-])ccc2n1 [Example 22, 2-Allylamino-4-ethylamino-6-nitroquinazoline]",215 to 216 °C,27 mmHg,–
"C=CCNc1nc(NCCOCCC)c2cc([N+](=O)[O-])ccc2n1 [Example 39, 2-Allylamino-6-nitro-4-(2-propoxyethylamino)quinazoline]",156 to 157 °C,30 mmHg,–
"CCCCNc1nc(NCC=C(C)C)c2cc([N+](=O)[O-])ccc2n1 [Example 60, 2-Butylamino-4-(3-methyl-2-butenylamino)-6-nitroquinazoline]",171 to 172 °C,27 mmHg,–
"C=CCNc1nc(NCC=C)c2scc(C)c2n1 [Example 66, 2,4-Diallylamino-7-methylthieno[3,2-d]pyrimidine]",77 to 80 °C,–,26 mmHg
"C=CCNc1nc(NC(C)(C)C)c2scc(C)c2n1 [Example 68, 2-Allylamino-4-t-butylamino-7-methylthieno[3,2-d] pyrimidine]",89 to 90 °C,–,31 mmHg
"C=CCNc1nc(NCC)c2scc(C)c2n1 [Example 76, 2-Allylamino-4-ethylamino-7-methylthieno[3,2-d]pyrimidine]",96 to 97 °C,–,33 mmHg
"C=CCNc1nc(NC23CC4CC(CC(C4)C2)C3)c2scc(C)c2n1 [Example 79, 4-(1-Adamantylamino)-2-allylamino-7-methylthieno[3,2-d] pyrimidine]",107 to 109 °C,–,36 mmHg

# The next lines start with results.
melting point,SMILES,"ΔPaO2 [1, 2]","ΔPaO2 [1, 3]"
65 to 66 °C,"C=CCNc1nc(NCCCCCCCCC)c2scc(C)c2n1 [Example 80, 2-Allylamino-4-nonylamino-7-methylthieno[3,2-d]pyrimidine]",–,28 mmHg
68 to 70 °C,"C=CCNc1nc(NCCCC)c2scc(C)c2n1 [Example 81, 2-Allylamino-4-butylamino-7-methylthieno[3,2-d]pyrimidine]",–,29 mmHg
91 to 92 °C,"C=CCNc1nc(NC(C)CC)c2scc(C)c2n1 (stereo not shown) [Example 84, 2-Allylamino-7-methyl-4-(1-methylpropylamino)thieno[3,2-d] pyrimidine]",–,27 mmHg
55 °C,"C=CCNc1nc(NCC=C)c2scc(CC)c2n1 [Example 103, 2,4-Diallylamino-7-ethylthieno[3,2-d]pyrimidine]",–,30 mmHg
